From the NIST ThermoML archive (doi:10.1016/j.jct.2012.09.011)

Assay: cn = amount concentration of the nth substance listed, in mol/dm3
Conditions: 310.15 K, 101 kPa, Liquid, Taylor dispersion method

[Cl][Cd][Cl] [cadmium chloride] + O
Conditions | binary diffusion coefficient [m2/s]
c1 = 0 | 1.39e-09
c1 = 0.001 | 1.34e-09
c1 = 0.003 | 1.32e-09
c1 = 0.005 | 1.28e-09
c1 = 0.008 | 1.28e-09
c1 = 0.01 | 1.28e-09
c1 = 0.05 | 1.2e-09
c1 = 0.1 | 1.2e-09
c1 = 0.4 | 1.26e-09
